Assay results as given in US20230265151A1, “GIP/GLP1 CO-AGONIST COMPOUNDS” (priority 2020, published 2023).
Where two headings read alike, the source gives them in different places. Where a SMILES comes first, the peptide text is derived from it. Side-chain parts run from the residue outwards. [ ]: non-standard residue; d: D form. The star is where a group is joined. αMePhe(2-F) = C[C@](N)(Cc1ccccc1F)C(=O)O; C14 diacid = O=C(O)CCCCCCCCCCCCC(=O)*; αMeY = C[C@](N)(Cc1ccc(O)cc1)C(=O)O; αMeL = CC(C)C[C@](C)(N)C(=O)O; Orn = NCCC[C@H](N)C(=O)O; AEEA = NCCOCCOCC(=O)O; Aib = CC(C)(N)C(=O)O

Experiments:
Format in all cases: cell-based
[1] = target: hGLP-1R (Homo sapiens, UniProt P43220); test: Functional cAMP formation (HTRF) in HEK-293 clonal cells expressing hGLP-1R, 0.1% bovine casein, without or with 1.0% human serum albumin; design: expressed in transfected cells; settings: for EC50: cAMP
Sequence of hGLP-1R (P43220 24-463): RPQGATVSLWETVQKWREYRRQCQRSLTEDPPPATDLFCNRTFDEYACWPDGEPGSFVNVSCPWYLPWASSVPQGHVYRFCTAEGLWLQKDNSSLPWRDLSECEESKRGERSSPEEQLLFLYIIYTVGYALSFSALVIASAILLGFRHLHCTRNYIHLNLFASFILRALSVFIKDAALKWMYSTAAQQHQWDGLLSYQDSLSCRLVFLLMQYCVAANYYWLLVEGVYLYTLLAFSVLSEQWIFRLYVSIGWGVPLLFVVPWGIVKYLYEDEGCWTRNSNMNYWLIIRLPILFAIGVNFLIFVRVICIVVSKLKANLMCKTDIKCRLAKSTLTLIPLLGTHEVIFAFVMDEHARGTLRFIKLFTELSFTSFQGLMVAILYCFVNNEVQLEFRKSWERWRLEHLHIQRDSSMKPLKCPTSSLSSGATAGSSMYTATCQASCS
In short: (§1)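 Readings of the HTRF 665/620 nm ratio, which falls as cAMP rises, were converted to nM cAMP using a standard curve after 30 min peptide exposure at 37° C.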

[2] = target: T1, hGCGR (Homo sapiens, UniProt P47871); test: Functional cAMP formation (HTRF) in HEK-293 clonal cells expressing hGCGR, 0.1% bovine casein, without or with 1.0% human serum albumin
T1 construct: expressed in transfected cells
T1 sequence (P47871 26-477): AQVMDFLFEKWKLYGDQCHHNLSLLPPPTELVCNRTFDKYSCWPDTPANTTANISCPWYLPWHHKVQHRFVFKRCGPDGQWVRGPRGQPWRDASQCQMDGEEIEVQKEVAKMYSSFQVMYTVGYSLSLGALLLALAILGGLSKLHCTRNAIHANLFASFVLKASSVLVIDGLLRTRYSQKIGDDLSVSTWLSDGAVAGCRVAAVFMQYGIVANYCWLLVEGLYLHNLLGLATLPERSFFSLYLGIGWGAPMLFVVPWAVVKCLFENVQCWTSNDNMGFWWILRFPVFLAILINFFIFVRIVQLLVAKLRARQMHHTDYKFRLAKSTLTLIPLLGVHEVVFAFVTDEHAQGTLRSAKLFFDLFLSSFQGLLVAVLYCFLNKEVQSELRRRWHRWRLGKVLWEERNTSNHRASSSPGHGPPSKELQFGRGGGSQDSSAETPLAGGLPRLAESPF
In short: as §1

[3] = target: T2, hGIPR (Homo sapiens, UniProt P48546); test: Functional cAMP formation (HTRF) in HEK-293 clonal cells expressing hGIPR, 0.1% bovine casein, without or with 1.0% human serum albumin
T2 construct: expressed in transfected cells
T2 sequence (P48546 22-466): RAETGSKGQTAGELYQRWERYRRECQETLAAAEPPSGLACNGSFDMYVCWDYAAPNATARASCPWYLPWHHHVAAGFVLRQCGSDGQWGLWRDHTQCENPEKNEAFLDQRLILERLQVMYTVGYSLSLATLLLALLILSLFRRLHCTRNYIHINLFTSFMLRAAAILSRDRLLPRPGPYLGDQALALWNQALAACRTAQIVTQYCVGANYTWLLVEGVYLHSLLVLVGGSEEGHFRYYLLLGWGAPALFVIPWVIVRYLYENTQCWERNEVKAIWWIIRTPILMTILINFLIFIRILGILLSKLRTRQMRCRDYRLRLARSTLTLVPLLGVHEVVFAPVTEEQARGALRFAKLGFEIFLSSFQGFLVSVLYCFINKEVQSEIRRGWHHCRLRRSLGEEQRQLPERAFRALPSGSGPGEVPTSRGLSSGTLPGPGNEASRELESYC
In short: as §1

[4] = 0.1% bovine casein and 1.0% human serum albumin, 37° C., geometric mean, read-out: hGCGR EC50, nM (SEM, n)
[5] = HEK293, 0.1% bovine casein and 1.0% human serum albumin, 37° C., percent of maximal response to GIP(1-42)NH2, read-out: hGIPR Emax, % ± SEM
[6] = HEK293, cAMP, 37° C., 0.1% bovine casein, percent of maximal response to GLP-1(7-36)NH2, arithmetic mean, read-out: hGLP-1R Emax, % ± SEM
[7] = cAMP, 37° C., 0.1% bovine casein (no human serum albumin), geometric mean, read-out: hGCGR EC50, nM (SEM, n)
[8] = cAMP, 37° C., 0.1% bovine casein (no human serum albumin), geometric mean, read-out: hGIPR EC50, nM (SEM, n)

CC[C@H](C)[C@H](NC(=O)[C@H](CCCN)NC(=O)[C@H](CC(=O)O)NC(=O)[C@H](CC(C)C)NC(=O)[C@](C)(CC(C)C)NC(=O)[C@@H](NC(=O)[C@H](CO)NC(=O)[C@H](Cc1ccncc1)NC(=O)[C@H](CC(=O)O)NC(=O)[C@H](CO)NC(=O)[C@@H](NC(=O)[C@](C)(Cc1ccccc1F)NC(=O)[C@@H](NC(=O)CNC(=O)[C@H](CCC(=O)O)NC(=O)C(C)(C)NC(=O)[C@@H](N)Cc1ccc(O)cc1)[C@@H](C)O)[C@@H](C)O)[C@@H](C)CC)C(=O)N[C@@H](C)C(=O)N[C@@H](CCC(N)=O)C(=O)NC(C)(C)C(=O)N[C@@H](CCCCNC(=O)COCCOCCNC(=O)COCCOCCNC(=O)CCCCCCCCCCCCC(=O)O)C(=O)N[C@@H](Cc1ccccc1)C(=O)N[C@H](C(=O)N[C@H](CCC(=O)O)C(=O)N[C@@](C)(Cc1ccc(O)cc1)C(=O)N[C@@H](CC(C)C)C(=O)N[C@H](C(=O)N[C@@H](CCCCNC(=O)COCCOCCNC(=O)COCCOCCNC(=O)CCCCCCCCCCCCC(=O)O)C(=O)NCC(=O)NCC(=O)N1CCC[C@H]1C(=O)N[C@@H](CO)C(=O)N[C@@H](CO)C(=O)NCC(=O)N[C@@H](C)C(=O)N1CCC[C@H]1C(=O)N1CCC[C@H]1C(=O)N1CCC[C@H]1C(=O)N[C@@H](CO)C(N)=O)[C@@H](C)CC)[C@@H](C)CC [Example 222]
Emax ([1]; HEK293, 0.1% bovine casein and 1.0% human serum albumin, 37° C., percent of maximal response to GLP-1(7-36)NH2, read-out: hGLP-1R Emax, % ± SEM): 117%
Emax ([1]; HEK293, percent of maximal response to GLP-1(7-36)NH2, 37° C., 0.1% bovine casein, arithmetic mean, read-out: hGLP-1R Emax, % ± SEM): 91.6%
EC50 ([1]; incubated at 37° C., 0.1% bovine casein (no human serum albumin), geometric mean, read-out: hGLP-1R EC50, nM (SEM, n)): 0.518 nM
EC50 [2, 4]: > 9950 nM
EC50 ([2]; cAMP, incubated at 37° C., 0.1% bovine casein (no human serum albumin), geometric mean, read-out: hGCGR EC50, nM (SEM, n)): > 9950 nM
Emax [3, 5]: 77.9%
Emax ([3]; HEK293, percent of maximal response to GIP(1-42)NH2, 37° C., 0.1% bovine casein, arithmetic mean, read-out: hGIPR Emax, % ± SEM): 98.7%
EC50 ([3]; cAMP, incubated at 37° C., 0.1% bovine casein (no human serum albumin), geometric mean, read-out: hGIPR EC50, nM (SEM, n)): 0.0195 nM

CC[C@H](C)[C@H](NC(=O)[C@H](CCCN)NC(=O)[C@H](CC(=O)O)NC(=O)[C@H](CC(C)C)NC(=O)[C@](C)(CC(C)C)NC(=O)[C@@H](NC(=O)[C@H](CO)NC(=O)[C@H](Cc1ccc(OC)cc1)NC(=O)[C@H](CC(=O)O)NC(=O)[C@H](CO)NC(=O)[C@@H](NC(=O)[C@](C)(Cc1ccccc1F)NC(=O)[C@@H](NC(=O)CNC(=O)[C@H](CCC(=O)O)NC(=O)C(C)(C)NC(=O)[C@@H](N)Cc1ccc(O)cc1)[C@@H](C)O)[C@@H](C)O)[C@@H](C)CC)C(=O)N[C@@H](C)C(=O)N[C@@H](CCC(N)=O)C(=O)NC(C)(C)C(=O)N[C@@H](CCCCNC(=O)COCCOCCNC(=O)COCCOCCNC(=O)CCCCCCCCCCCCC(=O)O)C(=O)N[C@@H](Cc1ccccc1)C(=O)N[C@H](C(=O)N[C@H](CCC(=O)O)C(=O)N[C@@](C)(Cc1ccc(O)cc1)C(=O)N[C@@H](CC(C)C)C(=O)N[C@H](C(=O)N[C@@H](CCC(=O)O)C(=O)NCC(=O)NCC(=O)N1CCC[C@H]1C(=O)N[C@@H](CO)C(=O)N[C@@H](CO)C(=O)NCC(=O)N[C@@H](C)C(=O)N1CCC[C@H]1C(=O)N1CCC[C@H]1C(=O)N1CCC[C@H]1C(=O)N[C@@H](CO)C(=O)N[C@@H](CCCCNC(=O)COCCOCCNC(=O)COCCOCCNC(=O)CCCCCCCCCCCCC(=O)O)C(N)=O)[C@@H](C)CC)[C@@H](C)CC [Example 268] (H-Y[Aib]EGT[αMePhe(2-F)]TSDY(Me)SI[αMeL]LD[Orn]IAQ[Aib]K([AEEA-AEEA-C14 diacid])FI[dE][αMeY]LIEGGPSSGAPPPSK([AEEA-AEEA-C14 diacid])-NH2)
Emax [1, 6]: 112%
EC50 [2, 4]: > 9950 nM
EC50 [2, 7]: > 9950 nM
Emax [3, 5]: 92.3%
EC50 [3, 8]: 0.0265 nM

CC[C@H](C)[C@H](NC(=O)[C@H](CCCN)NC(=O)[C@H](CC(=O)O)NC(=O)[C@H](CC(C)C)NC(=O)[C@](C)(CC(C)C)NC(=O)[C@@H](NC(=O)C(C)(C)NC(=O)[C@H](Cc1ccncc1)NC(=O)[C@H](CC(=O)O)NC(=O)[C@H](CO)NC(=O)[C@@H](NC(=O)[C@](C)(Cc1ccccc1F)NC(=O)[C@@H](NC(=O)CNC(=O)[C@H](CCC(=O)O)NC(=O)C(C)(C)NC(=O)[C@@H](N)Cc1ccc(O)cc1)[C@@H](C)O)[C@@H](C)O)[C@@H](C)CC)C(=O)N[C@@H](C)C(=O)N[C@@H](CCC(N)=O)C(=O)NC(C)(C)C(=O)N[C@@H](CCC(=O)O)C(=O)N[C@@H](Cc1ccccc1)C(=O)N[C@H](C(=O)N[C@@H](CCCCNC(=O)COCCOCCNC(=O)COCCOCCNC(=O)COCCOCCNC(=O)CC[C@H](NC(=O)CCCCCCCCCCCCC(=O)O)C(=O)O)C(=O)N[C@@](C)(Cc1ccc(O)cc1)C(=O)N[C@@H](CC(C)C)C(=O)N[C@H](C(=O)N[C@@H](CCCCNC(=O)COCCOCCNC(=O)COCCOCCNC(=O)COCCOCCNC(=O)CC[C@H](NC(=O)CCCCCCCCCCCCC(=O)O)C(=O)O)C(=O)NCC(=O)NCC(=O)N1CCC[C@H]1C(=O)N[C@@H](CO)C(=O)N[C@@H](CO)C(=O)NCC(=O)N[C@@H](C)C(=O)N1CCC[C@H]1C(=O)N1CCC[C@H]1C(=O)N1CCC[C@H]1C(=O)N[C@@H](CO)C(N)=O)[C@@H](C)CC)[C@@H](C)CC [Example 342]
Emax [1, 6]: 113%
EC50 ([1]; 37° C., 0.1% bovine casein (no human serum albumin), geometric mean, read-out: hGLP-1R EC50, nM (SEM, n)): 0.191 nM
EC50 ([1]; 37° C., 0.1% bovine casein and 1.0% human serum albumin, geometric mean (SEM, n), read-out: hGLP-1R EC50, nM (SEM, n)): 13.6 nM
EC50 [2, 7]: > 10100 nM
EC50 ([2]; cAMP, 37° C., 0.1% bovine casein and 1.0% human serum albumin, geometric mean (SEM, n), read-out: hGCGR EC50, nM (SEM, n)): > 9950 nM
Emax ([3]; HEK293, cAMP, 37° C., 0.1% bovine casein and 1.0% human serum albumin, percent of maximal response to GIP(1-42)NH2, read-out: hGIPR Emax, % ± SEM): 89.3%
EC50 [3, 8]: 0.0105 nM
EC50 ([3]; cAMP, 37° C., 0.1% bovine casein and 1.0% human serum albumin, geometric mean (SEM, n), read-out: hGIPR EC50, nM (SEM, n)): 1.04 nM

CC[C@H](C)[C@H](NC(=O)[C@H](CC(C)C)NC(=O)[C@](C)(Cc1ccc(O)cc1)NC(=O)[C@@H](CCC(=O)O)NC(=O)[C@@H](NC(=O)[C@H](Cc1ccccc1)NC(=O)[C@H](CCC(=O)O)NC(=O)C(C)(C)NC(=O)[C@H](CCC(N)=O)NC(=O)[C@H](C)NC(=O)[C@H](CCCCNC(=O)COCCOCCNC(=O)COCCOCCNC(=O)CC[C@H](NC(=O)CCCCCCCCCCOc1ccc(C(=O)O)cc1)C(=O)O)NC(=O)[C@H](CCCN)NC(=O)[C@H](CC(=O)O)NC(=O)[C@H](CC(C)C)NC(=O)[C@](C)(CC(C)C)NC(=O)[C@@H](NC(=O)[C@H](CO)NC(=O)[C@H](Cc1ccncc1)NC(=O)[C@H](CC(=O)O)NC(=O)[C@H](CO)NC(=O)[C@@H](NC(=O)[C@](C)(Cc1ccccc1F)NC(=O)[C@@H](NC(=O)CNC(=O)[C@H](CCC(=O)O)NC(=O)C(C)(C)NC(=O)[C@@H](N)Cc1ccc(O)cc1)[C@@H](C)O)[C@@H](C)O)[C@@H](C)CC)[C@@H](C)CC)C(=O)N[C@@H](CCC(=O)O)C(=O)NCC(=O)NCC(=O)N1CCC[C@H]1C(=O)N[C@@H](CO)C(=O)N[C@@H](CO)C(=O)NCC(=O)N[C@@H](C)C(=O)N1CCC[C@H]1C(=O)N1CCC[C@H]1C(=O)N1CCC[C@H]1C(=O)N[C@@H](CO)C(=O)N[C@@H](CCCCNC(=O)COCCOCCNC(=O)COCCOCCNC(=O)CC[C@H](NC(=O)CCCCCCCCCCOc1ccc(C(=O)O)cc1)C(=O)O)C(N)=O [Example 285]
Emax ([1]; HEK293, read-out: hGLP-1R Emax, % ± SEM, 0.1% bovine casein and 1.0% human serum albumin, 37° C., percent of maximal response to GLP-1(7-36)NH2): 105%
EC50 ([1]; hGLP-1R EC50, nM (SEM, n), 37° C., 0.1% bovine casein (no human serum albumin), geometric mean): 1.21 nM
EC50 ([2]; hGCGR EC50, nM (SEM, n), 0.1% bovine casein and 1.0% human serum albumin, 37° C., geometric mean): > 9950 nM
EC50 ([2]; hGCGR EC50, nM (SEM, n), cAMP, 37° C., 0.1% bovine casein (no human serum albumin), geometric mean): > 9950 nM
Emax ([3]; HEK293, read-out: hGIPR Emax, % ± SEM, 0.1% bovine casein and 1.0% human serum albumin, 37° C., percent of maximal response to GIP(1-42)NH2): 84.7%
EC50 ([3]; hGIPR EC50, nM (SEM, n), 0.1% bovine casein and 1.0% human serum albumin, 37° C., geometric mean): 1.28 nM
EC50 ([3]; hGIPR EC50, nM (SEM, n), cAMP, 37° C., 0.1% bovine casein (no human serum albumin), geometric mean): 0.0115 nM
